pIC50: −log10 of the molar value.
Experiments:
[1] = test system: IFNγ-induced NO production in RAW264.7 macrophages; assay: Suppression of IFNγ-induced NO production (Griess reagent); format: cell-based, mouse; settings: RAW264.7, 20 ng/ml IFNγ for 24 hours, 2 hours pre-treatment
Protocol: (§1) FIGS. 1-11 and 22. Inhibition of NO Production. RAW264.7 macrophages were pre-treated with DMSO or drugs at various concentrations (nM) for 2 hours, then treated with 20 ng/ml IFNγ for 24 hours. NO concentration in media was determined using a Griess reagent system; cell viability was determined using WST-1 reagent. Nitric Oxide production and cell viability. RAW264.7 macrophages were pre-treated with DMSO or drugs for 2 hours, then treated with recombinant mouse IFNγ (Sigma) for 24 hours. NO concentration in media was determined using the Griess reagent system (Promega). Cell viability was determined using WST-1 reagent (Roche).

RAW264.7 macrophages = assay: Cell viability (WST-1 reagent); format: cell-based, mouse; settings: RAW264.7, 20 ng/ml IFNγ
Protocol: as §1

Row | Compound | pIC50 ([1]; Mus musculus) | pIC50 [1] | pIC50 (RAW264.7 macrophages; Mus musculus) | pIC50 (RAW264.7 macrophages)
1 | COC(=O)[C@]12CCC(C)(C)C[C@H]1[C@H]1C(=O)C=C3[C@@]4(C)[C@@H](O)[C@](O)(C#N)C(=O)C(C)(C)[C@@H]4CC[C@@]3(C)[C@]1(C)CC2 [Compound 63316, (4aS,6aR,6bS,8aR,11R,12R,12aS,14aR,14bS)-methyl 11-cyano-11,12-dihydroxy-2,2,6a,6b,9,9,12a-heptamethyl-10,14-dioxo-1,2,3,4,4a,5,6,6a,6b,7,8,8a,9,10,11,12,12a,14,14a,14b-icosahydropicene-4a-carboxylate] | ~7.10 | – | < 6.70 | –
2 | COCOC[C@@]1(C)C(=O)C(C#N)=C[C@]2(C)C3=CC(=O)[C@@H]4[C@@H]5CC(C)(C)CC[C@]5(C(=O)OC)CC[C@@]4(C)[C@]3(C)CC[C@@H]12 [Compound 63302, (4aS,6aR,6bS,8aR,9S,12aS,14aR,14bS)-methyl 11-cyano-9-((methoxymethoxy)methyl)-2,2,6a,6b,9,12a-hexamethyl-10,14-dioxo-1,2,3,4,4a,5,6,6a,6b,7,8,8a,9,10,12a,14,14a,14b-octadecahydropicene-4a-carboxylate] | ~7.74 | – | ~7.00 | –
3 | CC1(C)CC[C@]2(C(=O)N=[N+]=[N-])CC[C@]3(C)[C@H](C(=O)C=C4[C@@]5(C)C=C(C#N)C(=O)C(C)(C)[C@@H]5CC[C@]43C)[C@@H]2C1 [Compound 402-11, (4aS,6aR,6bS,8aR,12aS,14aR,14bS)-11-cyano-2,2,6a,6b,9,9,12a-heptamethyl-10,14-dioxo-1,2,3,4,4a,5,6,6a,6b,7,8,8a,9,10,12a,14,14a,14b-octadecahydropicene-4a-carbonyl azide] | 8.60 | – | 6.82 | –
4 | COC(=O)[C@]12CCC(C)(C)C[C@H]1[C@H]1C(=O)C=C3[C@@]4(C)C=C(C#N)C(=O)C(C)(C)[C@@H]4C(=O)C[C@@]3(C)[C@]1(C)CC2 [Compound 63309, (4aS,6aR,6bS,8aR,12aS,14aR,14bS)-methyl 11-cyano-2,2,6a,6b,9,9,12a-heptamethyl-8,10,14-trioxo-1,2,3,4,4a,5,6,6a,6b,7,8,8a,9,10,12a,14,14a,14b-octadecahydropicene-4a-carboxylate] | ~7.92 | – | < 6.70 | –
5 | COC(=O)[C@]12CCC(C)(C)C[C@H]1[C@H]1C(=O)C=C3[C@@]4(C)CC(C#N)=C(OC(C)=O)C(C)(C)[C@@H]4CC[C@@]3(C)[C@]1(C)CC2 [Compound 402-47, (4aS,6aR,6bS,8aR,12aS,14aR,14bS)-methyl-10-acetoxy-11-cyano-2,2,6a,6b,9,9,12a-heptamethyl-14-oxo-1,2,3,4,4a,5,6,6a,6b,7,8,8a,9,12,12a,14,14a,14b-octadecahydropicene-4a-carboxylate] | < 6.70 | – | < 6.70 | –
6 | CC1(C)CC[C@]2(C(=O)NCCO)CC[C@]3(C)[C@H](C(=O)C=C4[C@@]5(C)C=C(C#N)C(=O)C(C)(C)[C@@H]5CC[C@]43C)[C@@H]2C1 [Compound 402-40, (4aS,6aR,6bS,8aR,12aS,14aR,14bS)-11-cyano-N-(2-hydroxyethyl)-2,2,6a,6b,9,9,12a-heptamethyl-10,14-dioxo-1,2,3,4,4a,5,6,6a,6b,7,8,8a,9,10,12a,14,14a,14b-octadecahydropicene-4a-carboxamide] | 7.77 | – | 7.12 | –
7 | COC(=O)[C@]12CCC(C)(C)C[C@H]1[C@H]1C(=O)C=C3[C@@]4(C)C=C(C#N)C(=O)C(C)(C)[C@@H]4[C@H](O)C[C@@]3(C)[C@]1(C)CC2 [Compound 63307, (4aS,6aR,6bS,8R,8aR,12aS,14aR,14bS)-methyl 11-cyano-8-hydroxy-2,2,6a,6b,9,9,12a-heptamethyl-10,14-dioxo-1,2,3,4,4a,5,6,6a,6b,7,8,8a,9,10,12a,14,14a,14b-octadecahydropicene-4a-carboxylate] | ~7.22 | – | < 6.70 | –

Second part, led by results:

Row | pIC50 ([1]; Mus musculus) | pIC50 [1] | Compound | pIC50 (RAW264.7 macrophages; Mus musculus) | pIC50 (RAW264.7 macrophages)
8 | < 6.70 | – | COC(=O)[C@]12CCC(C)(C)C[C@H]1[C@H]1C(=O)C=C3[C@@]4(C)C=C(C(=O)NO)C(=O)C(C)(C)[C@@H]4CC[C@@]3(C)[C@]1(C)CC2 [Compound 402-07, (4aS,6aR,6bS,8aR,12aS,14aR,14b5)-methyl-11-(hydroxycarbamoyl)-2,2,6a,6b,9,9,12a-heptamethyl-10,14-dioxo-1,2,3,4,4a,5,6,6a,6b,7,8,8a,9,10,12a,14,14a,14b-octadecahydropicene-4a-carboxylate] | < 6.70 | –
9 | – | < 6.70 | COC(=O)[C@]12CCC(C)(C)C[C@H]1[C@H]1C(=O)C=C3[C@@]4(C)C=C(F)C(=O)C(C)(C)[C@@H]4CC[C@@]3(C)[C@]1(C)CC2 [Compound 402-05, (4aS,6aR,6bS,8aR,12aR,14aR,14b5)-methyl-11-fluoro-2,2,6a,6b,9,9,12a-heptamethyl-10,14-dioxo-1,2,3,4,4a,5,6,6a,6b,7,8,8a,9,10,12a,14,14a,14b-octadecahydropicene-4a-carboxylate] | – | < 6.70
10 | 8.38 | – | CC1(C)CC[C@]2(C(=O)NO)CC[C@]3(C)[C@H](C(=O)C=C4[C@@]5(C)C=C(C#N)C(=O)C(C)(C)[C@@H]5CC[C@]43C)[C@@H]2C1 [Compound 402-09, (4aS,6aR,6bS,8aR,12aS,14aR,14bS)-11-cyano-N-hydroxy-2,2,6a,6b,9,9,12a-heptamethyl-10,14-dioxo-1,2,3,4,4a,5,6,6a,6b,7,8,8a,9,10,12a,14,14a,14b-octadecahydropicene-4a-carboxamide] | < 6.70 | –
11 | 7.21 | – | COC(=O)[C@]12CCC(C)(C)C[C@H]1[C@H]1C(=O)C=C3[C@@]4(C)C=C(C(=O)NS(C)(=O)=O)C(=O)C(C)(C)[C@@H]4CC[C@@]3(C)[C@]1(C)CC2 [Compound 402-08, (4aS,6aR,6bS,8aR,12aS,14aR,14bS)-methyl-2,2,6a,6b,9,9,12a-heptamethyl-11-(methylsulfonylcarbamoyl)-10,14-dioxo-1,2,3,4,4a,5,6,6a,6b,7,8,8a,9,10,12a,14,14a,14b-octadecahydropicene-4a-carboxylate] | < 6.70 | –
12 | ~7.92 | – | COC(=O)[C@]12CCC(C)(C)C[C@H]1[C@H]1C(=O)C=C3[C@@]4(C)C=C(C(F)(F)F)C(=O)C(C)(C)[C@@H]4CC[C@@]3(C)[C@]1(C)CC2 [Compound 63320, (4aS,6aR,6bS,8aR,12aS,14aR,14bS)-methyl 2,2,6a,6b,9,9,12a-heptamethyl-10,14-dioxo-11-(trifluoromethyl)-1,2,3,4,4a,5,6,6a,6b,7,8,8a,9,10,12a,14,14a,14b-octadecahydropicene-4a-carboxylate] | – | –
13 | 8.64 | – | CONC(=O)[C@]12CCC(C)(C)C[C@H]1[C@H]1C(=O)C=C3[C@@]4(C)C=C(C#N)C(=O)C(C)(C)[C@@H]4CC[C@@]3(C)[C@]1(C)CC2 [Compound 402-10, (4aS,6aR,6bS,8aR,12aS,14aR,14bS)-11-cyano-N-methoxy-2,2,6a,6b,9,9,12a-heptamethyl-10,14-dioxo-1,2,3,4,4a,5,6,6a,6b,7,8,8a,9,10,12a,14,14a,14b-octadecahydropicene-4a-carboxamide] | < 6.70 | –
14 | < 6.70 | – | COC(=O)[C@]12CCC(C)(C)C[C@H]1[C@H]1C(=O)C=C3[C@@]4(C)C(C)=C(C#N)C(=O)C(C)(C)[C@@H]4CC[C@@]3(C)[C@]1(C)CC2 [Compound 402-22, (4 aS,6aR,6bS,8aR,12 aR,14 aR,14bS)-methyl-11-cyano-2,2,6a,6b,9,9,12,12a-octamethyl-10,14-dioxo-1,2,3,4,4a,5,6,6a,6b,7,8,8a,9,10,12a,14,14a,14b-octadecahydropicene-4a-carboxylate] | < 6.70 | –
